Each structure is given as a SMILES string.

As to `Cc1ccc(S(=O)(=O)NS(=O)(=O)N2CCC(N3CCC(Oc4ccc(Cl)c(Cl)c4)CC3)CC2)cc1.[Na]`, the melting point lay in the range of 242 to 243 °C.

For the compound `Cc1c(Cl)ccc(OC2CCN(C3CCN(S(=O)(=O)NC(=O)c4ccccc4)CC3)CC2)c1Cl` [Example 5A, N-Benzoyl-4-(2,4-dichloro-3-methylphenoxy)-[1,4′-bipiperidine)-1′-sulfonamide], the melting point was found to be 223 °C.

As for `O=C(NC(=O)N1CCC(N2CCC(Oc3ccc(Cl)c(Cl)c3)CC2)CC1)c1ccccc1` [Example 7A, N-Benzoyl-4-(3,4-dichlorophenoxy)-[1,4′-bipiperidine]-1′-carboxamide], the melting point lay within 65 to 80 °C.

As to `O=C(NS(=O)(=O)N1CCC(N2CCC(Oc3ccc(Cl)c(Cl)c3)CC2)CC1)c1ccc(Cl)c(Cl)c1` [Example 8A, N-(3,4-Dichlorobenzoyl)-4-(3,4-dichlorophenoxy)-(1,4′-bipiperidine]-1′-sulfonamide], the melting point was in the range of 166 to 167 °C.

As to `O=C(NS(=O)(=O)N1CCC(N2CCC(Oc3ccc(Cl)c(Cl)c3)CC2)CC1)c1c[nH]c(=O)c2ccccc12` [Example 11A, 4-(3,4-Dichlorophenoxy)-N-[(1,2-dihydro-1-oxo-4-isoquinolinyl)carbonyl]-[1,4′-bipiperidine]-1′-sulfonamide], the melting point came to 200 °C.

The record behind these values is patent US7307090B2, “Piperidine derivatives useful as modulators of chemokine receptor activity” (AstraZeneca AB, priority 2001, dated 2007).
